Laboratory results reported in PubChem BioAssay AID330 (DTP/NCI, 2004).
Where “and” joins values, the source holds several entries; their conditions need not be identical. Identical values can stand only once. Inconclusive results and toxic doses are left out. How the source made its calls: active means survival T/C of 150% or more; inactive means T/C below 125% in these data.

Tested on: P388 leukemia ip, CD2F1 mice, survival T/C
Assay: NCI In Vivo Anticancer Drug Screen. Data for tumor model P388 Leukemia (intraperitoneal) in CD2F1 (CDF1) mice
Conditions: endpoint: median survival time, higher = longer survival
Outline: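 Mice carrying the transplanted tumor received test compound or vehicle. Survival was recorded in each group, and the value is the treated-group measurement divided by that of the vehicle-treated control group.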

[1] = dose: 50.0 mg/kg/injection, schedule: Q01DX005 (ip), vehicle: saline with Tween-80
[2] = dose: 100.0 mg/kg/injection, schedule: Q01DX005 (ip), vehicle: saline with Tween-80
[3] = dose: 200.0 mg/kg/injection, schedule: Q01DX005 (ip), vehicle: saline with Tween-80
[4] = dose: 50.0 mg/kg/injection, schedule: Q01DX009 (ip), vehicle: saline
[5] = dose: 100.0 mg/kg/injection, schedule: Q01DX009 (ip), vehicle: saline
[6] = dose: 12.5 mg/kg/injection, schedule: Q01DX009 (ip), vehicle: Klucel (hydroxypropylcellulose) (HPC)
[7] = dose: 25.0 mg/kg/injection, schedule: Q01DX009 (ip), vehicle: Klucel (hydroxypropylcellulose) (HPC)
[8] = dose: 50.0 mg/kg/injection, schedule: Q01DX009 (ip), vehicle: Klucel (hydroxypropylcellulose) (HPC)
[9] = dose: 100.0 mg/kg/injection, schedule: Q01DX009 (ip), vehicle: Klucel (hydroxypropylcellulose) (HPC)
[10] = dose: 200.0 mg/kg/injection, schedule: Q01DX009 (ip), vehicle: Klucel (hydroxypropylcellulose) (HPC)
[11] = dose: 100.0 mg/kg/injection, schedule: Q04DX003 (ip), vehicle: saline with Tween-80
[12] = dose: 200.0 mg/kg/injection, schedule: Q04DX003 (ip), vehicle: saline with Tween-80
[13] = dose: 400.0 mg/kg/injection, schedule: Q04DX003 (ip), vehicle: saline with Tween-80
[14] = dose: 50.0 mg/kg/injection, schedule: Q01DX009 (ip), vehicle: saline with Tween-80
[15] = dose: 25.0 mg/kg/injection, schedule: Q01DX005 (ip), vehicle: saline
[16] = dose: 50.0 mg/kg/injection, schedule: Q01DX005 (ip), vehicle: saline
[17] = dose: 100.0 mg/kg/injection, schedule: Q01DX005 (ip), vehicle: saline
[18] = dose: 50.0 mg/kg/injection, schedule: Q01DX005 (ip), vehicle: Klucel (hydroxypropylcellulose) (HPC)
[19] = dose: 12.5 mg/kg/injection, schedule: Q01DX005 (ip), vehicle: saline with Tween-80
[20] = dose: 25.0 mg/kg/injection, schedule: Q01DX005 (ip), vehicle: saline with Tween-80

Measured: T/C

N#CCc1ccc([N+](=O)[O-])cc1C(=O)O
inactive: [1] 104 % of control | [2] 104 % of control | [3] 101 % of control

CC(=Nc1c[nH]c(=O)[nH]c1=O)c1cc(C)ccc1O
inactive: dose: 100.0 mg/kg/injection, schedule: Q04DX002 (ip), vehicle: suspension in saline 105 % of control | dose: 200.0 mg/kg/injection, schedule: Q04DX002 (ip), vehicle: suspension in saline 101 % of control | dose: 400.0 mg/kg/injection, schedule: Q04DX002 (ip), vehicle: suspension in saline 104 % of control

NC1=NC(c2ccccc2O)CC(=O)N1 (stereo not given)
inactive: [4] 103 % of control | [5] 111 % of control | dose: 200.0 mg/kg/injection, schedule: Q01DX009 (ip), vehicle: saline 110 % of control

C=C1C(=O)OC2/C=C(\C)CC/C=C(\C)C(OC(C)=O)C(OC(=O)C3(C)OC3C)C12O (stereo not given)
inactive: [6] 105 % of control | [7] 115 % of control | [8] 115 % of control | [9] 94 % of control

COc1ccc(N2C(=O)C(=O)C(C(C)=O)C2=O)cc1 (stereo not given)
inactive: dose: 100.0 mg/kg/injection, schedule: Q04DX002 (ip), vehicle: saline with Tween-80 100 % of control | dose: 200.0 mg/kg/injection, schedule: Q04DX002 (ip), vehicle: saline with Tween-80 94 % of control

O=C(CCn1c(CN2CCN(C/C=C/c3ccccc3)CC2)nc2ccccc21)c1ccccc1
inactive: [8] 104 % of control | [9] 100 % of control | [10] 111 % of control

CNc1ccc(CN2CCCCC2)cc1C
inactive: dose: 0.93 mg/kg/injection, schedule: Q01DX005 (ip), vehicle: Klucel (hydroxypropylcellulose) (HPC) 100 % of control and 92 % of control | dose: 1.87 mg/kg/injection, schedule: Q01DX005 (ip), vehicle: Klucel (hydroxypropylcellulose) (HPC) 100 % of control and 97 % of control | dose: 3.75 mg/kg/injection, schedule: Q01DX005 (ip), vehicle: Klucel (hydroxypropylcellulose) (HPC) 99 % of control and 95 % of control and 96 % of control

CC(CC(=O)c1ccccc1)=NCC(O)CN=C(C)CC(=O)c1ccccc1.[Cu] (stereo not given)
inactive: dose: 12.5 mg/kg/injection, schedule: Q04DX003 (ip), vehicle: saline with Tween-80 96 % of control | dose: 25.0 mg/kg/injection, schedule: Q04DX003 (ip), vehicle: saline with Tween-80 93 % of control | dose: 50.0 mg/kg/injection, schedule: Q04DX003 (ip), vehicle: saline with Tween-80 96 % of control | [11] 94 % of control and 98 % of control | [12] 101 % of control and 92 % of control | [13] 96 % of control

COP(=S)(NC(C)C)Oc1ccc(C)cc1[N+](=O)[O-] (stereo not given)
inactive: [14] 98 % of control | dose: 100.0 mg/kg/injection, schedule: Q01DX009 (ip), vehicle: saline with Tween-80 100 % of control | dose: 200.0 mg/kg/injection, schedule: Q01DX009 (ip), vehicle: saline with Tween-80 90 % of control

O=C(O)/C=N/OCc1cc2c(cc1Cl)OCO2
inactive: dose: 50.0 mg/kg/injection, schedule: Q04DX003 (ip), vehicle: saline sonified 100 % of control | dose: 100.0 mg/kg/injection, schedule: Q04DX003 (ip), vehicle: saline sonified 100 % of control | dose: 200.0 mg/kg/injection, schedule: Q04DX003 (ip), vehicle: saline sonified 105 % of control

Cc1cc(N(CCOS(C)(=O)=O)CCOS(C)(=O)=O)ccc1C=Nc1ccc(-c2nc(Cc3ccccc3)sc2C)cc1
inactive: [6] 101 % of control | dose: 12.5 mg/kg/injection, schedule: Q01DX009 (oral), vehicle: Klucel (hydroxypropylcellulose) (HPC) 106 % of control and 107 % of control | dose: 25.0 mg/kg/injection, schedule: Q01DX009 (oral), vehicle: Klucel (hydroxypropylcellulose) (HPC) 100 % of control and 107 % of control | dose: 50.0 mg/kg/injection, schedule: Q01DX009 (oral), vehicle: Klucel (hydroxypropylcellulose) (HPC) 106 % of control and 117 % of control | dose: 100.0 mg/kg/injection, schedule: Q01DX009 (oral), vehicle: Klucel (hydroxypropylcellulose) (HPC) 108 % of control | dose: 200.0 mg/kg/injection, schedule: Q01DX009 (oral), vehicle: Klucel (hydroxypropylcellulose) (HPC) 119 % of control and 124 % of control | dose: 400.0 mg/kg/injection, schedule: Q01DX009 (oral), vehicle: Klucel (hydroxypropylcellulose) (HPC) 106 % of control

NC(=O)c1cc2c(oc1=O)-c1ccccc1N(C=O)C2
inactive: dose: 60.0 mg/kg/injection, schedule: Q01DX005 (ip), vehicle: saline with Tween-80 100 % of control | dose: 120.0 mg/kg/injection, schedule: Q01DX005 (ip), vehicle: saline with Tween-80 95 % of control | dose: 240.0 mg/kg/injection, schedule: Q01DX005 (ip), vehicle: saline with Tween-80 95 % of control

CC1CCC2N(C1)CC1C3(O)CC45OC6(O)C(O)CCC4(C)C6CCC5C3(O)CC(O)C1(O)C2(C)O (stereo not given)
inactive: dose: 3.12 mg/kg/injection, schedule: Q01DX009 (ip), vehicle: saline with Tween-80 103 % of control | dose: 6.25 mg/kg/injection, schedule: Q01DX009 (ip), vehicle: saline with Tween-80 112 % of control | dose: 12.5 mg/kg/injection, schedule: Q01DX009 (ip), vehicle: saline with Tween-80 98 % of control | [15] 114 % of control | dose: 25.0 mg/kg/injection, schedule: Q01DX009 (ip), vehicle: saline with Tween-80 103 % of control | [16] 109 % of control | [14] 98 % of control | [17] 107 % of control

O=C1C=CC(=Nc2cccc3c2C(=O)c2ccccc2-3)O1
inactive: [1] 107 % of control and 115 % of control | [2] 120 % of control and 122 % of control | [3] 122 % of control

Cc1cc2c(cc1C)NC1=C(N2)OC(c2cccc(O)c2)C1=O (stereo not given)
inactive: dose: 7.5 mg/kg/injection, schedule: Q01DX005 (ip), vehicle: Klucel (hydroxypropylcellulose) (HPC) 104 % of control | dose: 15.0 mg/kg/injection, schedule: Q01DX005 (ip), vehicle: Klucel (hydroxypropylcellulose) (HPC) 101 % of control | dose: 30.0 mg/kg/injection, schedule: Q01DX005 (ip), vehicle: Klucel (hydroxypropylcellulose) (HPC) 110 % of control

CC1=N/C(=C\C=C\c2ccccc2)C(=O)O1
inactive: [16] 104 % of control | [17] 101 % of control | dose: 200.0 mg/kg/injection, schedule: Q01DX005 (ip), vehicle: saline 103 % of control

CC(C)(OCc1ccccc1)c1ccccc1P(c1ccccc1)c1ccccc1
inactive: [8] 101 % of control | [9] 101 % of control | [10] 110 % of control

CCN1C(=O)/C(=C/C=C/N(C)c2ccccc2)SC1=S
inactive: [4] 112 % of control | [5] 103 % of control

CC1CC23C4CCCN2CC2OC2C13C1CC4OC1=O (stereo not given)
inactive: [6] 114 % of control | [7] 113 % of control | [8] 115 % of control | [9] 113 % of control

CC(NC(=O)OCC1c2ccccc2-c2ccccc21)C(=O)O (stereo not given)
inactive: [18] 103 % of control | dose: 100.0 mg/kg/injection, schedule: Q01DX005 (ip), vehicle: Klucel (hydroxypropylcellulose) (HPC) 98 % of control | dose: 200.0 mg/kg/injection, schedule: Q01DX005 (ip), vehicle: Klucel (hydroxypropylcellulose) (HPC) 96 % of control

O=C1NC(=O)N(c2ccc([N+](=O)[O-])cc2)C1=O
inactive: [8] 86 % of control | [9] 89 % of control | [10] 86 % of control (2×) and 93 % of control

CCC1OC(OC)C=CC1=O (stereo not given)
inactive: dose: 12.5 mg/kg/injection, schedule: Q01DX005 (ip), vehicle: Klucel (hydroxypropylcellulose) (HPC) 113 % of control | dose: 12.5 mg/kg/injection, schedule: Q01DX005 (ip), vehicle: saline 101 % of control | dose: 25.0 mg/kg/injection, schedule: Q01DX005 (ip), vehicle: Klucel (hydroxypropylcellulose) (HPC) 114 % of control | [15] 108 % of control | [18] 124 % of control | [16] 98 % of control | [17] 104 % of control

Nc1c2c(=O)[nH]c(O)cc2nn1-c1ccccc1
inactive: [19] 100 % of control | [20] 96 % of control | [1] 100 % of control and 97 % of control

COC(=O)/C=C/c1c(=O)c(C(=O)OC)cn2cnc3nc[nH]c3c12
inactive: [11] 97 % of control | [12] 93 % of control | [13] 98 % of control

OCC1CCCC1CO (stereo not given)
inactive: [1] 106 % of control and 101 % of control | [2] 105 % of control and 101 % of control | [3] 100 % of control and 114 % of control

C/C(=N\NC(=S)Nc1ccc(S(N)(=O)=O)cc1)c1ccccn1
inactive: [19] 94 % of control | [20] 108 % of control | [1] 119 % of control | [2] 96 % of control
